Key:
ovine pituitary cells [1] = experiment: LH synthesis by ovine pituitary cells in suspension culture; format: cell-based; settings: cells incubated with treatment for 16 hours; LH synthesis during 24 hour culture after removal
Procedure: In addition, the conjugation procedure reduces the toxicity of the pokeweed antiviral protein by 99.5 in a cell-free translation system. […] The activity of this conjugate was also tested in a pituitary cell culture system. In this system, pituitary cells were incubated with the sterilization agent conjugated to [D-Lys^6, des-Gly^10]-GnRH-ethylamide for 16 hours. After incubation, the sterilization agents were removed from the incubation media by extensive washing and the cells were then cultured for an additional 24 hours. The increase in total LH, i.e., that present in the media plus that in the cells during the 24 hour period, represents the ability of the treated cells to synthesize LH. […]
The effect of these compounds on ovine pituitary cells in suspension culture was measured. […] After pretreatment, the cells were washed 6 times, counted, and small aliquots removed for testing. […] 3 ml of cold Gel-PBS was added to each tube, cells were centrifuged, and the media was measured for LH content. The four pretreatment groups were evaluated for their ability to synthesize and secrete LH immediately after treatment and after the 24 hour recovery period.

ovine pituitary cells [2] = experiment: Total culture LH after exposure to GnRH and toxin conjugates with or without lysosomal agents; format: cell-based; settings: 24 hour exposure, wash, further 24 hour culture in standard media
Procedure: Applicants then tested the more promising Barley-2IT-[D-Lys^6, desGly^10]-GnRH-ethylamide conjugate in similar assay systems. […] Ovine pituitary cells were again placed in culture with various agents and the total LH in the cells and media determined after a 24 hour exposure, wash, and further 24 hour culture in standard media.

[3] = test system: GnRH induced secretion of LH; experiment: GnRH induced secretion of LH in ovariectomized female rats; format: in vivo; settings: single injection; ovariectomized female rat
Procedure: Applicants also tested these compounds using an in vivo model. The test system initially chosen was the ovariectomized female rat. […] During week 2, release of LH was reduced by 50% in the GnRH-A treated group (controls), but by >90% in the GnRH-A-T group. […] It might however be the basis for a temporary sterilization. Based upon this finding, a second experiment was conducted to examine the effect of 4 injections of a pokeweed antiviral sterilization conjugate at 3-day intervals on the ability of ovariectomized rats to release LH.
Applicants also tested the PAP-carbodiimide-[D-Lys^6, desGly^10]-GnRH-ethylamide conjugate in ovariectomized female rats.
FIG. 1B indicates the results of a challenge by one of applicants' compounds to ovariectomized rats. […] The open space above the bars indicates the amount of LH released in response to a GnRH challenge. The challenges were administered on the first day of treatment and again 4 weeks later.

Substance	SYNTHESIS of LH (ovine pituitary cells [1]) [ng per 5 × 10^6 cells]	Total LH (ovine pituitary cells [2]) [Ng/10^5 cells in Culture]	reduction of release of LH, week 2 [3] [%]
gonadotropin-releasing hormone (QHWSYGLRPG; Gonadoliberin-1; UniProt P01148 24-33, looked up) [GnRH, native decapeptide hormone]	545.5	–	–
pyroGlu-His-Trp-Ser-Tyr-D-Lys-Leu-Arg-Pro-ethylamide [[D-Lys^6, des-Gly^10]-GnRH-ethylamide]	–	1.62	50
